Columns and labels:
[1] = molecular target: T1, MOR (Mus musculus, UniProt P42866); assay: [35S]-GTPγS functional assay at MOR; type: biochemical; conditions: relative to 3 μM DAMGO; mean ± SEM (n ≥ 3)
T1 construct: expressed in transfected cells

[2] = molecular target: T2, KOR (Mus musculus, UniProt P33534); assay: competitive radioligand binding assay, KOR; conditions: CHO cell membranes; mean ± SEM (n ≥ 3)
T2 construct: expressed in transfected cells; host or cells: CHO cells (provided by Dr. Selley, Virginia Commonwealth University)

[3] = molecular target: T3, human δ-opioid receptor (DOR) (Homo sapiens, UniProt P41143); assay: competitive radioligand binding assay, DOR; conditions: CHO cell membranes; mean ± SEM (n ≥ 3)
T3 construct: expressed in transfected cells; host or cells: CHO cells (provided by Dr. Selley, Virginia Commonwealth University)

Q: Which “MOR [35S]-GTPγS binding % Emax of DAMGO” value [1] does the source give for `O=C(N[C@H]1CC[C@@]2(O)[C@H]3Cc4ccc(O)c5c4[C@@]2(CCN3CC2CC2)[C@H]1O5)c1cccc2cc[nH]c12` [NAN, 17-cyclopropylmethyl-3,14β-dihydroxy-4,5α-epoxy-6α-(indole-7-carboxamido)morphinan] here?
A: Its value is 19.11 ±3.31%.

Q: And the Ki [2]?
A: Its Ki is 1.69 ± 0.35 nM.

Q: And the Ki [3]?
A: Its Ki is 13.7 ± 1.39 nM.
